Data from PubChem BioAssay (NCI).
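Five concentrations, 48 hours, 96-well plates. TGI: total growth inhibition.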

Experiments:
Assay in all cases: NCI-60 cell line screen, 48 h
[1] = system: 786-0 renal
[2] = system: A498 renal
[3] = system: A549 NSCLC
[4] = system: ACHN renal
[5] = system: BT-549 breast
[6] = system: CAKI-1 renal
[7] = system: CCRF-CEM leukemia
[8] = system: COLO 205 colon
[9] = system: DU-145 prostate
[10] = system: EKVX NSCLC
[11] = system: HCC-2998 colon
[12] = system: HCT-116 colon
[13] = system: HCT-15 colon
[14] = system: HL-60(TB) leukemia
[15] = system: HOP-62 NSCLC
[16] = system: HOP-92 NSCLC
[17] = system: HS 578T breast
[18] = system: HT29 colon
[19] = system: IGROV1 ovarian
[20] = system: K-562 leukemia
[21] = system: KM12 colon
[22] = system: LOX IMVI melanoma
[23] = system: M14 melanoma
[24] = system: MALME-3M melanoma
[25] = system: MCF7 breast
[26] = system: MDA-MB-231 breast
[27] = system: MDA-MB-435
[28] = system: MDA-N
[29] = system: MOLT-4 leukemia
[30] = system: NCI-H226 lung
[31] = system: NCI-H23 lung
[32] = system: NCI-H460 lung
[33] = system: NCI-H522 lung
[34] = system: NCI/ADR-RES ovarian
[35] = system: OVCAR-3 ovarian
[36] = system: OVCAR-4 ovarian
[37] = system: OVCAR-5 ovarian
[38] = system: OVCAR-8 ovarian
[39] = system: PC-3 prostate
[40] = system: RPMI-8226 leukemia
[41] = system: RXF 393 renal
[42] = system: SF-268 CNS
[43] = system: SF-295 CNS
[44] = system: SF-539 CNS
[45] = system: SK-MEL-2 melanoma
[46] = system: SK-MEL-28 melanoma
[47] = system: SK-MEL-5 melanoma
[48] = system: SK-OV-3 ovarian
[49] = system: SN12C renal
[50] = system: SNB-19 CNS
[51] = system: SNB-75 CNS
[52] = system: SR leukemia
[53] = system: SW-620 colon
[54] = system: T-47D breast
[55] = system: TK-10 renal
[56] = system: U251 CNS
[57] = system: UACC-257 melanoma
[58] = system: UACC-62 melanoma
[59] = system: UO-31 renal

Measured: TGI

CCOC(=O)NN(C(=O)OCC)C(=C(c1ccccc1)N1CCOCC1)N(NC(=O)OCC)C(=O)OCC
> 100 µM: all assays above
